Where “and” joins values, the source holds several entries; their conditions need not be identical. Identical values can stand only once.
How the values were obtained:
[1] = Partition coefficients of CBZ and ROY in PEGMDA microgels from ethanol solutions; assay type: physicochemical; settings: for Partition coefficient κ (solute mass fraction in gel solution / bulk): ethanol solution
[2] = ROY nucleation induction time with PEGMDA microgels in ethanol; assay type: physicochemical; settings: ROY Form R; without microgels
[3] = ROY; at the chosen experimental condition; cited from earlier work
[4] = Preferred orientation of ROY crystals on PEGMDA polymer films by XRD; assay type: physicochemical
Source text: The ROY-polymer interactions were probed via preferred crystal orientations on flat PEGMDA films. From the bulk solution, ROY crystallized in Form Y predominantly. In comparison, PEGMDA films templated nucleation of R, as well as Y, which is consistent with the observations with microgels. […] To verify this observation, the contribution from each crystal facet was quantified and listed the prominent ones in Table 12. […] Polymers with M=130, 200 g/mol favor R (111) and R (220). As M increases, percentage of R decreases and Y increases to become the dominant polymorph on M=575, 700 g/mol, which is contact with the polymer via Y (020) and/or (040) facet.
XRD patterns of ROY crystallized from bulk solution and on PEGDA films under the substantially similar conditions were obtained. Additional peaks observed from crystals templated by polymer films but not from bulk crystals were observed. Reference patterns were calculated from CSD using POWD-12++.
Analysis on the XRD data is carried out by normalizing the measured peak intensities Ip^i with the reference peak intensities Ibulk^i from the bulk sample, following the formula
[formula] where ηi is the percentage of crystals in orientation i, and p is short for polymer. Percentages are highlighted as bold for dominant orientations in each case.

[5] = ROY nucleation induction time with PEGMDA microgels in ethanol; assay type: physicochemical; settings: for τ(O): ROY orange needle form; for τ(R): ROY red form; for τ(Y): ROY yellow form
Experimental: (§1) In each experiment, crystallization of pure forms of either Y (yellow prisms), R (red prisms) or ON (orange needles) were observed from ethanol solution stochastically (FIG. 30), and their frequencies of occurrence were calculated by conducting 50-150 experiments in each case (FIG. 31). Nucleation induction time data from bulk solution or with PEG130DA microgels were fitted with the stretched exponential model and the average induction time thus regressed represents an average of all forms (Table 10), since the frequencies of occurrence for R and ON were too low for separate statistical analysis. […] In the multi-exponential model, each exponential decay process may be better represented with a stretched exponential, however, a simple exponential suffices in this case and decent fit was obtained with R^2 very close to unity (Table 11).
Nucleation induction time statistics of ROY with or without the presence of PEGDA microgels were determined. For each type of samples, 50-100 experiments were performed to obtain the induction time statistics wherein P is the probability for observing no crystallization event within time t is estimated from the fraction of samples haven't crystallized at this time point. Either stretched exponential model or multi-exponential models were employed to fit the data (see Tables 10 and 11).
Induction time distribution data were fitted with stretched exponentials via nonlinear least square regression: P=exp[−(t/τ)^β], where P is the probability to observe no crystallization event within time t. τ is an average of induction times for all Y, R, ON forms.
Induction time distribution data were fitted with superposition of two or three exponentials via nonlinear least square regression. Two-exponential fit was employed for PEG200DA and PEG700DA samples: P=a·exp[−t/τ(Y)]+(1−a)·exp[−t/τ(R)], with τ(R) an average of forms R and O for the PEG700DA sample. Three-exponential fit was used for PEG400DA and PEG575DA samples: P=a·exp[−t/τ(Y)]+b·exp[−t/τ(R)]+(1−a−b)·exp[−t/τ(O)], where Y, R, and O represent the yellow, red and orange needle forms respectively. *τ, an average induction time of Form R and ON, given the lack of data points to distinguish the two.

[6] = ROY polymorph frequency of occurrence; assay type: physicochemical; settings: vs bulk crystallization
Experimental: as §1
In FIG. 31: Polymorph frequency of occurrence in 12 mg/ml ROY-ethanol solution with or without microgels of various mesh sizes (left) and at higher solution concentrations, C0 (right). Frequency of occurrence is calculated as the percentage of samples crystallized in a particular form within 1440 min out of the total number of samples. The analysis for 12 mg/ml solution is carried out previously. In summary, addition of PEGDA microgels accelerated crystallization of all three forms, Y, R and ON.

[7] = PEGMDA polymer film M 130 g/mol
[8] = PEGMDA polymer film M 200 g/mol
[9] = PEGMDA polymer film M 400 g/mol
[10] = PEGMDA polymer film M 575 g/mol
[11] = PEGMDA polymer film M 700 g/mol

## Cc1cc(C#N)c(Nc2ccccc2[N+](=O)[O-])s1 [ROY, 5-methyl-2-[(2-nitrophenyl)amino]-3-thiophenecarbonitrile]
[1]; PEGMDA gels, ethanol
  ROY concentration in the gel phase relative to bulk solution: 6-11 times
[1]; PEGMDA microgels M 130 g/mol
  Partition coefficient κ (solute mass fraction in gel solution / bulk): 6.3 ± 0.2
[1]; PEGMDA microgels M 200 g/mol
  Partition coefficient κ (solute mass fraction in gel solution / bulk): 6.1 ± 0.9
[1]; PEGMDA microgels M 400 g/mol
  Partition coefficient κ (solute mass fraction in gel solution / bulk): 11.0 ± 0.4
[1]; PEGMDA microgels M 575 g/mol
  Partition coefficient κ (solute mass fraction in gel solution / bulk): 11.3 ± 1.6
[1]; PEGMDA microgels M 700 g/mol
  Partition coefficient κ (solute mass fraction in gel solution / bulk): 11.8 ± 1.1
[2]
  average induction time of R: over 10000 min
[3]
  relative stability of the three observed polymorphs: Y>ON>R
[4]; [7]
  Percentage of ROY crystals in orientation R (111): 38.0%
  Percentage of ROY crystals in orientation R (220): 46.8%
  Percentage of ROY crystals in orientation Y (020): 7.5%
  Percentage of ROY crystals in orientation Y (040): 3.4%
[4]; [8]
  Percentage of ROY crystals in orientation R (111): 36.2%
  Percentage of ROY crystals in orientation R (220): 53.6%
  Percentage of ROY crystals in orientation Y (020): 3.5%
  Percentage of ROY crystals in orientation Y (040): 1.6%
[4]; [9]
  Percentage of ROY crystals in orientation R (111): 28.8%
  Percentage of ROY crystals in orientation R (220): 24.9%
  Percentage of ROY crystals in orientation Y (020): 23.6%
  Percentage of ROY crystals in orientation Y (040): 9.9%
[4]; [10]
  Percentage of ROY crystals in orientation R (111): 12.9%
  Percentage of ROY crystals in orientation R (220): 20.0%
  Percentage of ROY crystals in orientation Y (020): 26.9%
  Percentage of ROY crystals in orientation Y (040): 13.1%
[4]; [11]
  Percentage of ROY crystals in orientation R (111): 9.8%
  Percentage of ROY crystals in orientation R (220): 14.4%
  Percentage of ROY crystals in orientation Y (020): 50.9%
  Percentage of ROY crystals in orientation Y (040): 16.9%
[5]; ROY Form Y, PEG200DA microgels
  time within which all nucleation of Y occurred: ≤ 100 min
[5]; PEG400DA microgels
  τ(O): 3300 min
  τ(R): 1600 ± 400 min
  τ(Y): 22.0 ± 0.6 min
[5]; PEG575DA microgels
  τ(O): 2900 min
  τ(R): 200 min and 200 ± 20 min
  τ(Y): 10.0 ± 0.8 min
[5]; PEG200DA microgels
  τ(R): 9000 ± 6000 min
  τ(Y): 26.0 ± 1.5 min
[5]; PEG700DA microgels
  τ(Y): 12.0 ± 1.2 min
[5]; ROY, Bulk ethanol solution
  average nucleation induction time τ (average of Y, R, ON forms): 10000 ± 2000 min
[5]; ROY, PEG130DA microgels
  average nucleation induction time τ (average of Y, R, ON forms): 4000 ± 750 min
[5]; ROY, PEG700DA microgels
  τ(R), an average induction time of Form R and ON: 2600 ± 400 min
[6]
  improvement of Form R frequency of occurrence by polymer microgels: up to 20 times
